In patent publication US5352659A, “Endothelin analogs and uses thereof” (Takeda Chemical Industries, priority 1991, dated 1994):
Values belong to the molecule of their own block, whether it stands above or below them. Bridge positions count the residues as written; N and C are the ends. Peptide text beside a SMILES is read from it.

Assays:
endothelin receptor = assay: Assay of affinity for receptor (inhibition of 125I-ET-1 binding to porcine myocardial membrane fraction); details: relative to ET-1 = 100
Description: Assay of Affinity for Receptor
A membrane fraction prepared from the porcine heart was diluted to 0.15 mg/ml by using a buffer solution for assay, and 100 μl of the resulting suspension of the membrane fraction was poured into each assay tube to use for assay. To this suspension of the membrane fraction was added 2 μl of 5 nM ^125 I labeled endothelin-1 solution. Further, 3 μl of a test peptide solution was added thereto, followed by incubation at a temperature of 25° C. for 1 hour. Then, the resulting suspension was diluted with 900 μl of the buffer solution for assay cooled with ice, and thereafter separated into a supernatant and a precipitate by centrifugation at 12,000×g for 10 minutes. Cell membranes and an endothelin receptor embedded therein were contained in the precipitate, and radioactive iodine-labeled endothelin combined with the receptor was also recovered in the precipitate. Accordingly, the amount of radioactive iodine-labeled endothelin combined with the endothelin receptor was determined by measuring the amount of radioactive iodine contained in the precipitate with a gamma-ray counter.

porcine coronary artery = assay: Constrictor activity on porcine coronary smooth muscles; details: for Maximum constriction (% 60 mM KCl): porcine coronary artery strips, normalized to 60 mM KCl response; for Constrictor activity (specific activity): relative to ET-1 = 100, porcine coronary artery
Description: (§1) Spiral strips 2 mm×15 mm prepared from the coronary right ramus circumflexus from which the adventitial connective tissues and the endothelial cells were removed were set to 4 ml organ baths. The tension of each strip was detected by a force displacement transducer UL-10GR (Minebea), and recorded by a polygraph (NEC Sanei). The organ baths were maintained at 37° C., and filled with a Krebs-Henseleit solution (composition: 118 mM NaCl, 4.7 mM KCl, 2.5 mM CaCl2, 1.2 mM KH2 PO4, 25.0 mM NaHCO3, 1.2 mM MgSO4, 10.0 mM glucose) gassed with 95% O2 and 5% CO2.
(§2) A tension of 1.25 to 1.5 g was applied to each of the strips, followed by equilibration for 1.5 hours. 60 mM KCl was repeatedly applied thereto at intervals of 30 minutes until the constriction response became constant. After additional equilibration for 1.5 hours, a sample for assay was given thereto. The constriction of the strips was normalized by the constriction response of the individual strips to 60 mM KCl and statistically processed.
(2) As to the antagonistic property of the peptides of the present invention to endothelin, the affinity for an endothelin receptor and the constrictor activity on porcine coronary smooth muscles (according to the method described in (1) described above) were assayed. The affinity for the receptor was assayed by the following method.

[1] = tested on: porcine coronary smooth muscles
Description: (1) Assay of Constrictor Suppressing Activity on Porcine Coronary Smooth Muscles
as §1, §2
pA2 is a negative logarithm value of a molar concentration of a competitive antagonist necessary for shifting in parallel a dose response curve for an active drug (for example, ET-1) alone to the high dose side by a factor of 2.

Receptor binding activity (specific activity) (endothelin receptor): 11
Compound: CC[C@H](C)[C@H](NC(=O)[C@H](CC(C)C)NC(=O)[C@@H](NC(=O)[C@H](CC(C)C)NC(=O)[C@H](Cc1c[nH]cn1)NC(=O)[C@@H]1CSSC[C@H](N)C(=O)N[C@@H](CO)C(=O)N[C@H]2CSSC[C@H](NC(=O)[C@H](CCC(=O)O)NC(=O)[C@H](CCCCN)NC(=O)[C@H](CC(=O)O)NC(=O)[C@H](CCSC)NC(=O)[C@H](C)NC(=O)[C@H](CO)NC(=O)[C@H](CO)NC2=O)C(=O)N[C@@H](C(C)C)C(=O)N[C@@H](Cc2ccc(O)cc2)C(=O)N[C@@H](Cc2ccccc2)C(=O)N1)[C@@H](C)O)C(=O)N[C@@H](Cc1c[nH]c2ccccc12)C(=O)O [Example 15, [Ala^6, Thr^18, Leu^19]-ET-1] (H-CSCSSAMDKECVYFCHLTLIW-OH; disulfide 1-15, 3-11)
Maximum constriction (% 60 mM KCl) (porcine coronary artery): 7 % 60 mM KCl | Constrictor activity (specific activity) (porcine coronary artery): < 0.1 | Relative potency [1]: 6 | pA2 [1]: 6.5

Compound: CC[C@H](C)[C@H](NC(=O)[C@H](CC(C)C)NC(=O)[C@@H](NC(=O)[C@H](CC(C)C)NC(=O)[C@H](Cc1c[nH]cn1)NC(=O)[C@@H]1CSSC[C@H](N)C(=O)N[C@@H](CO)C(=O)N[C@H]2CSSC[C@H](NC(=O)[C@H](CCC(=O)O)NC(=O)[C@H](CCCCN)NC(=O)[C@H](CC(=O)O)NC(=O)[C@H](C)NC(=O)[C@H](CC(C)C)NC(=O)[C@H](CO)NC(=O)[C@H](CO)NC2=O)C(=O)N[C@@H](C(C)C)C(=O)N[C@@H](Cc2ccc(O)cc2)C(=O)N[C@@H](Cc2ccccc2)C(=O)N1)[C@@H](C)O)C(=O)N[C@@H](Cc1c[nH]c2ccccc12)C(=O)O [Example 16, [Ala^7, Thr^18, Leu^19]-ET-1] (H-CSCSSLADKECVYFCHLTLIW-OH; disulfide 1-15, 3-11)
Receptor binding activity (specific activity) (endothelin receptor): 62 | Maximum constriction (% 60 mM KCl) (porcine coronary artery): 9 % 60 mM KCl | Constrictor activity (specific activity) (porcine coronary artery): < 0.1 | pA2 [1]: 7.2
